Test results taken from ChEMBL document CHEMBL2177079, “Free-Wilson and structural approaches to co-optimizing human and rodent isoform potency for 11β-hydroxysteroid dehydrogenase type 1 (11β-HSD1) inhibitors” (J Med Chem, 2012).

How the values were obtained:
[1] = Oral bioavailability in Han Wistar rat at 7.4 to 14.7 umol/kg; assay type: ADME, organism-based; details: Han Wistar, in vivo
[2] = Lipophilicity, log D at pH 7.4; assay type: physicochemical; details: buffer
[3] = molecular target: 11-beta-hydroxysteroid dehydrogenase 1 (Mus musculus, UniProt P50172); test: Inhibition of mouse 11beta-HSD1 by HTRF assay
[4] = molecular target: 11-beta-hydroxysteroid dehydrogenase 1 (Homo sapiens, UniProt P28845); test: Inhibition of human 11beta-HSD1 by HTRF assay
Sequence of 11-beta-hydroxysteroid dehydrogenase 1 (Homo sapiens, UniProt P28845) (P28845 whole entry): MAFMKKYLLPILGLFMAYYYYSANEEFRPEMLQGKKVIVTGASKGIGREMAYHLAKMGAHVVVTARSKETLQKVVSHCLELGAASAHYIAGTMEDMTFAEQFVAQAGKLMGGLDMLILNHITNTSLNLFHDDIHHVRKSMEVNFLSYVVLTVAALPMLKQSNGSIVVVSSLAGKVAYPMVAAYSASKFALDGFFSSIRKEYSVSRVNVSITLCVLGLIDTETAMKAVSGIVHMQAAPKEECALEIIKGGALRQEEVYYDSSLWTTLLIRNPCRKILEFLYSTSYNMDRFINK

Sequence of 11-beta-hydroxysteroid dehydrogenase 1 (Mus musculus, UniProt P50172) (P50172 whole entry): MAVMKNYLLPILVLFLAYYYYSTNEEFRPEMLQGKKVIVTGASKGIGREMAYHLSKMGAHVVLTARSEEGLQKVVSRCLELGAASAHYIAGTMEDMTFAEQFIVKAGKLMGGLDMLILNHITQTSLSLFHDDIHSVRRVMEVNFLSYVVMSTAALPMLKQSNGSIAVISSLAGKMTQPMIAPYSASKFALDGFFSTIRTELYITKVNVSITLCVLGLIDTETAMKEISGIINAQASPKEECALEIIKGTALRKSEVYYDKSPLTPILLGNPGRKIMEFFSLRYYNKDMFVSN

bioavailability [1] [%] | logD [2] | IC50 [3] [nM] | IC50 [4] [nM] | Structure (SMILES)
62 | 2.7 |  |  | CC(C)Oc1nc(N[C@@H]2CCOC2)ncc1C(=O)N[C@H]1C2CC3CC1C[C@](O)(C3)C2
68 | 2 | 67 |  | C[C@@H](O)CNc1ncc(C(=O)N[C@H]2C3CC4CC2C[C@](O)(C4)C3)c(C2CCCC2)n1
 | 2.5 | 32 |  | CC(C)(CO)Nc1ncc(C(=O)N[C@H]2C3CC4CC2C[C@](O)(C4)C3)c(C2CCCC2)n1
 | 2.6 | 38 |  | O=C(N[C@H]1C2CC3CC1C[C@](O)(C3)C2)c1cnc(NC2CCOCC2)nc1C1CCCC1
9 | 1.4 | 85 |  | O=C1C[C@H](CNc2ncc(C(=O)N[C@H]3C4CC5CC3C[C@](O)(C5)C4)c(C3CCCC3)n2)CN1
 | 2 | 42 |  | C[C@H](O)CNc1ncc(C(=O)N[C@H]2C3CC4CC2C[C@](O)(C4)C3)c(C2CCCC2)n1
 | 2.7 | 25 |  | O=C(N[C@H]1C2CC3CC1C[C@](O)(C3)C2)c1cnc(NC[C@@H]2CCCO2)nc1C1CCCC1 (single isomer, unassigned)
51 | 2.5 | 31 |  | O=C(N[C@H]1C2CC3CC1C[C@](O)(C3)C2)c1cnc(NCCO)nc1OC1CCC1
 | 2.8 | 42 |  | O=C(N[C@H]1C2CC3CC1C[C@](O)(C3)C2)c1cnc(NC[C@H]2CCCO2)nc1C1CCCC1
53 | 1.8 | 22 |  | O=C(N[C@H]1C2CC3CC1C[C@](O)(C3)C2)c1cnc(NC2CCOCC2)nc1C1CC1
 | 1.4 | 163 |  | CN(C)C(=O)CNc1ncc(C(=O)N[C@H]2C3CC4CC2C[C@](O)(C4)C3)c(C2CCCC2)n1
19 | 2.6 | 33 |  | O=C(N[C@H]1C2CC3CC1C[C@](O)(C3)C2)c1cnc(NC2COC2)nc1OC1CCC1
 | 1.1 |  |  | O=C(N[C@H]1C2CC3CC1C[C@](O)(C3)C2)c1cnc(NC2CCS(=O)(=O)CC2)nc1C1CCC1
82 | 1.8 | 42 |  | O=C(N[C@H]1C2CC3CC1C[C@](O)(C3)C2)c1cnc(N[C@H]2CCOC2)nc1C1CCC1
99 | 2 | 37 |  | O=C(N[C@H]1C2CC3CC1C[C@](O)(C3)C2)c1cnc(N[C@@H]2CCOC2)nc1C1CCC1
 | 2.4 | 73 |  | COCCNc1ncc(C(=O)N[C@H]2C3CC4CC2C[C@](O)(C4)C3)c(C2CCCC2)n1
17 | 2.7 | 36 |  | O=C(N[C@H]1C2CC3CC1C[C@](O)(C3)C2)c1cnc(N[C@H]2CCC[C@H]2O)nc1C1CCCC1
 | 1.6 | 64 |  | O=C(N[C@H]1C2CC3CC1C[C@](O)(C3)C2)c1cnc(NC2CCS(=O)(=O)CC2)nc1C1CCCC1
 | 1.5 | 31 |  | CC(C)(O)CNc1ncc(C(=O)N[C@H]2C3CC4CC2C[C@](O)(C4)C3)c(C2CC2)n1
86 | 1.8 |  |  | CC(C)(O)CNc1ncc(C(=O)N[C@H]2C3CC4CC2C[C@](O)(C4)C3)c(C2CCC2)n1

bioavailability [1] [%] | logD [2] | IC50 [3] [nM] | IC50 [4] [nM] | Structure (SMILES)
 | 2.1 | 66 |  | O=C(N[C@H]1C2CC3CC1C[C@](O)(C3)C2)c1cnc(NC2COC2)nc1C1CCCC1
83 | 2.5 |  |  | CC(C)Oc1nc(N[C@H]2CCOC2)ncc1C(=O)N[C@H]1C2CC3CC1C[C@](O)(C3)C2
 | 1.6 |  |  | O=C(N[C@H]1C2CC3CC1C[C@](O)(C3)C2)c1cnc(N[C@@H]2CCOC2)nc1C1CC1
18 | 1.8 | 50 |  | CC(=O)N1CC[C@@H](Nc2ncc(C(=O)N[C@H]3C4CC5CC3C[C@](O)(C5)C4)c(C3CCCC3)n2)C1
 | 2.1 | 31 |  | O=C(N[C@H]1C2CC3CC1C[C@](O)(C3)C2)c1cnc(NC2CCS(=O)(=O)CC2)nc1OC1CCC1
57 | 2.2 | 53 |  | CC(C)Oc1nc(NC2COC2)ncc1C(=O)N[C@H]1C2CC3CC1C[C@](O)(C3)C2
63 | 2.4 | 25 | 21 | O=C(N[C@H]1C2CC3CC1C[C@](O)(C3)C2)c1cnc(N[C@@H]2CCOC2)nc1C1CCCC1
99 | 2.9 | 16 |  | O=C(N[C@H]1C2CC3CC1C[C@](O)(C3)C2)c1cnc(N[C@@H]2CCOC2)nc1OC1CCC1
46 | 1.9 | 84 |  | CC(=O)N1CCC(Nc2ncc(C(=O)N[C@H]3C4CC5CC3C[C@](O)(C5)C4)c(C3CCCC3)n2)CC1
 | 1.8 | 20 |  | CC(C)(CO)Nc1ncc(C(=O)N[C@H]2C3CC4CC2C[C@](O)(C4)C3)c(C2CC2)n1
 | 0.9 | 55 |  | O=C(N[C@H]1C2CC3CC1C[C@](O)(C3)C2)c1cnc(N[C@H]2CCNC2=O)nc1C1CCCC1
 | 1.1 | 38 |  | O=C(N[C@H]1C2CC3CC1C[C@](O)(C3)C2)c1cnc(NC2COC2)nc1C1CC1
99 | 2.8 | 22 |  | O=C(N[C@H]1C2CC3CC1C[C@](O)(C3)C2)c1cnc(N[C@H]2CCOC2)nc1OC1CCC1
73 | 1.7 |  |  | O=C(N[C@H]1C2CC3CC1C[C@](O)(C3)C2)c1cnc(N[C@H]2CCOC2)nc1C1CC1
33 | 2.3 | 48 |  | CC(C)(O)CNc1ncc(C(=O)N[C@H]2C3CC4CC2C[C@](O)(C4)C3)c(C2CCCC2)n1
 | 1.8 | 179 |  | O=C(N[C@H]1C2CC3CC1C[C@](O)(C3)C2)c1cnc(NCCO)nc1C1CCCC1
 | 1.6 | 133 |  | O=C1CC[C@@H](Nc2ncc(C(=O)N[C@H]3C4CC5CC3C[C@](O)(C5)C4)c(C3CCCC3)n2)CN1
83 | 3.2 | 19 |  | O=C(N[C@H]1C2CC3CC1C[C@](O)(C3)C2)c1cnc(NC2CCOCC2)nc1OC1CCC1
 | 1.3 |  |  | O=C(N[C@H]1C2CC3CC1C[C@](O)(C3)C2)c1cnc(NCCO)nc1C1CCC1
